In patent US6608086B2, “Dihydropyridines and new uses thereof” (Synaptic Pharmaceutical Corporation, priority 1993, dated 2003):
Structures can show the parent of a compound that is named as a salt. Where two headings read alike, the source gives them in different places.

What was measured:
[1] = target: T1, α1C Human Adrenergic Receptor (Homo sapiens, UniProt P35348); assay: Radioligand binding, [3H]prazosin, cloned human α1C adrenergic receptor
T1 construct: The entire coding region of α1C (1401 bp); expressed in transfected cells
T1 sequence (P35348 1-466): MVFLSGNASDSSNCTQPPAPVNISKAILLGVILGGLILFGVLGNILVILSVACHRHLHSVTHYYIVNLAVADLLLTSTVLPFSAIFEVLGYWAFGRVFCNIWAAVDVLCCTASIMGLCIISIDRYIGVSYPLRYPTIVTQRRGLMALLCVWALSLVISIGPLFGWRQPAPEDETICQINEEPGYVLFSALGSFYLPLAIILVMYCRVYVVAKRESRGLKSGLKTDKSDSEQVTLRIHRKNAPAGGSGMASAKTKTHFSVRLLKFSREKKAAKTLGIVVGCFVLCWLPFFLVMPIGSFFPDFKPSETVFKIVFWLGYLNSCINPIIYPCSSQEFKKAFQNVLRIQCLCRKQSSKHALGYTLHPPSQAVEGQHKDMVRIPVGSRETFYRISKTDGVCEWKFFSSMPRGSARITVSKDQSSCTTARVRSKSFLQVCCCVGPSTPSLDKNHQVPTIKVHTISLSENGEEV
Method in brief: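 Read-out is filter-retained [3H]prazosin (0.5 nM) bound to membranes of LM(tk−) cells stably carrying the human α1C receptor. Incubation ran 20 min at 37° C. at pH 7.5, with 10 μM phentolamine marking nonspecific binding.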

L-type calcium channel = target: T2, L-type calcium channel (Rattus norvegicus, UniProt P22002); assay: Competition binding of [3H]nitrendipine to membrane fragments of rat cardiac muscle; details: [3H]nitrendipine
T2 construct: membrane fragments of rat cardiac muscle; from tissue; host or cells: rat cardiac muscle membranes
T2 sequence (P22002 whole entry, other chains not shown, the tested form may be a part): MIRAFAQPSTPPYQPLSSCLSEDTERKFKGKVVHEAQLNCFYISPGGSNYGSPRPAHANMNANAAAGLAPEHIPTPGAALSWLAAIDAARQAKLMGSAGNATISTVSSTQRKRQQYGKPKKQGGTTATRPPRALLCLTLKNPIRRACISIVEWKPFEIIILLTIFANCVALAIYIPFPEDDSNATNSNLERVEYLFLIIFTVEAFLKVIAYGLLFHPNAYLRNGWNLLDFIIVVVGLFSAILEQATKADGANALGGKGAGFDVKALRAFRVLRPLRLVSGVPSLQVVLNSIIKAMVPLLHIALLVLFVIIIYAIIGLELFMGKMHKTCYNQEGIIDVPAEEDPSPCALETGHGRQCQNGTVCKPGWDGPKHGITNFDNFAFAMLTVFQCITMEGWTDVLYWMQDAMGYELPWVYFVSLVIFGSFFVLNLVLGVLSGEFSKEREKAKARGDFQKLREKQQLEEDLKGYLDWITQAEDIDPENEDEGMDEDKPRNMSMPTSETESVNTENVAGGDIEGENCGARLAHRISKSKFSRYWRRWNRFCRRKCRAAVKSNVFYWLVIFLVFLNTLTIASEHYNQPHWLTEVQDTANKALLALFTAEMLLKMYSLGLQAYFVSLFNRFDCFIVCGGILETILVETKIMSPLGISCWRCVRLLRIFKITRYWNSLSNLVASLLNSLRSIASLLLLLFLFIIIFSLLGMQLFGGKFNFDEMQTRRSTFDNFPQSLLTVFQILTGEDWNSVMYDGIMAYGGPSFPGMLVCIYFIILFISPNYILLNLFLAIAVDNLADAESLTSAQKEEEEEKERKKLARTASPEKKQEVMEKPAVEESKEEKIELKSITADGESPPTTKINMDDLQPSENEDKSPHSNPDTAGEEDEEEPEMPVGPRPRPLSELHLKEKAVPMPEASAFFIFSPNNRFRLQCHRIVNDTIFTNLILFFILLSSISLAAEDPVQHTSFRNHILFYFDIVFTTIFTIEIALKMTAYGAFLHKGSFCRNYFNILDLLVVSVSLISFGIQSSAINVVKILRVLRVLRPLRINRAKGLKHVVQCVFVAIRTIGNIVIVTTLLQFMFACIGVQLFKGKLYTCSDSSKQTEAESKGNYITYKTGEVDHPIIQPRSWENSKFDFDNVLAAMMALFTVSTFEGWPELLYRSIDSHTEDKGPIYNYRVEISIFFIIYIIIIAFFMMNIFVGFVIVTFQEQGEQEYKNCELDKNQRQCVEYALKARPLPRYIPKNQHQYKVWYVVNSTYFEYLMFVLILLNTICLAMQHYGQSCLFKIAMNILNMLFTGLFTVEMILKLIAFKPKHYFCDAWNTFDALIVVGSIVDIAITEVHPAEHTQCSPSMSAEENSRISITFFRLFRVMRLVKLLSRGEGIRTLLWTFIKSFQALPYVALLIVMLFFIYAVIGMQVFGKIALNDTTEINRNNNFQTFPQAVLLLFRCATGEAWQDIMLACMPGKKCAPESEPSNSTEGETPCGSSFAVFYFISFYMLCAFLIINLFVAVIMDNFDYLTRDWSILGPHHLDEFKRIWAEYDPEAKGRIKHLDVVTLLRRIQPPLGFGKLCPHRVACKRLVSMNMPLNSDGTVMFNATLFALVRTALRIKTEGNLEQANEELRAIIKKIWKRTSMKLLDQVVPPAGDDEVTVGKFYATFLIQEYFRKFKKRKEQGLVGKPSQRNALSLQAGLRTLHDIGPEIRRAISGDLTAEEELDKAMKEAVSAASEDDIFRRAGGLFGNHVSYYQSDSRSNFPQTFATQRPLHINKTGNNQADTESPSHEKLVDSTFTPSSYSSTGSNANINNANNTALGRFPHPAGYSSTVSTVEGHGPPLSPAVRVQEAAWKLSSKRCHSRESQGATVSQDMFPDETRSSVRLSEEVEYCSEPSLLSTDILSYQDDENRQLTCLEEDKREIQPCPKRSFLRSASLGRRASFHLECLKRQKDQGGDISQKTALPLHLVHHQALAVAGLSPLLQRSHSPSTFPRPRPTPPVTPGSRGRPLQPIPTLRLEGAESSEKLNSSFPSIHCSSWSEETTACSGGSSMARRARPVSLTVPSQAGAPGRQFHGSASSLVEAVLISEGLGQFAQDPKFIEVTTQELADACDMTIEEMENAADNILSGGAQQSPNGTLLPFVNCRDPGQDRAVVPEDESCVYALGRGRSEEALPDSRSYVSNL
T2 sequence (P54290 25-944 partner limits assumed, other chains not shown): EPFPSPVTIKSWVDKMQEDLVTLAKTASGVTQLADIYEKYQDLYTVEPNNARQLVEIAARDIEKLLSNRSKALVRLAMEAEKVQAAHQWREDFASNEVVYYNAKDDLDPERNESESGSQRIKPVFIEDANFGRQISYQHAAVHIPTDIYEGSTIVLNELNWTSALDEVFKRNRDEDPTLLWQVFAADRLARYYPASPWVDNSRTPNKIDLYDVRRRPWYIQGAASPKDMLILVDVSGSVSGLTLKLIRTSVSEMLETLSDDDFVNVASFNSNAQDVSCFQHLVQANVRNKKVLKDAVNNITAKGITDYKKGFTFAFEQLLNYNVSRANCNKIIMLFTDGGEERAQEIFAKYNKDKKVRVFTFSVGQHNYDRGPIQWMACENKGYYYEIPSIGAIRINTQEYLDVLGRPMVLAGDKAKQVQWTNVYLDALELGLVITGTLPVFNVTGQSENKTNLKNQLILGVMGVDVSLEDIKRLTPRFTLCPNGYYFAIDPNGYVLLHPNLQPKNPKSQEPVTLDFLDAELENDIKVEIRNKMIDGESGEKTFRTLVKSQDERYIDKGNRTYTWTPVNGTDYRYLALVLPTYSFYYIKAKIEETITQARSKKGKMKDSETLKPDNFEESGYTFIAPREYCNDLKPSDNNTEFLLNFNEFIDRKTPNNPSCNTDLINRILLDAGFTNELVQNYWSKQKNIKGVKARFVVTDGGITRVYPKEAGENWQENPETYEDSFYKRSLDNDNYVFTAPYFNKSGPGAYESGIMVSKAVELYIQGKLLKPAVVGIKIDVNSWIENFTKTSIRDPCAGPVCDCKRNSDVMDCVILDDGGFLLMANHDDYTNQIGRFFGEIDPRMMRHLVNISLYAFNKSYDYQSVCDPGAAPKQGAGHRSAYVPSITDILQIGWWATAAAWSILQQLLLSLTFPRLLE
T2 sequence (P54290 945-1091 partner limits assumed, other chains not shown): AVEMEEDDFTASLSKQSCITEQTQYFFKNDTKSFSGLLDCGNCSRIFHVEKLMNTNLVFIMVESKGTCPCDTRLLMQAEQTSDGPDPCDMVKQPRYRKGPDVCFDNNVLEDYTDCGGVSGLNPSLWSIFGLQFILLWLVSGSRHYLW

[2] = target: T3, α1A Human Adrenergic Receptor (Homo sapiens, UniProt P25100); assay: Radioligand binding, [3H]prazosin, cloned human α1A adrenergic receptor; details: [3H]prazosin
T3 construct: The entire coding region of α1A (1719 bp); expressed in transfected cells
T3 sequence (P25100 1-572): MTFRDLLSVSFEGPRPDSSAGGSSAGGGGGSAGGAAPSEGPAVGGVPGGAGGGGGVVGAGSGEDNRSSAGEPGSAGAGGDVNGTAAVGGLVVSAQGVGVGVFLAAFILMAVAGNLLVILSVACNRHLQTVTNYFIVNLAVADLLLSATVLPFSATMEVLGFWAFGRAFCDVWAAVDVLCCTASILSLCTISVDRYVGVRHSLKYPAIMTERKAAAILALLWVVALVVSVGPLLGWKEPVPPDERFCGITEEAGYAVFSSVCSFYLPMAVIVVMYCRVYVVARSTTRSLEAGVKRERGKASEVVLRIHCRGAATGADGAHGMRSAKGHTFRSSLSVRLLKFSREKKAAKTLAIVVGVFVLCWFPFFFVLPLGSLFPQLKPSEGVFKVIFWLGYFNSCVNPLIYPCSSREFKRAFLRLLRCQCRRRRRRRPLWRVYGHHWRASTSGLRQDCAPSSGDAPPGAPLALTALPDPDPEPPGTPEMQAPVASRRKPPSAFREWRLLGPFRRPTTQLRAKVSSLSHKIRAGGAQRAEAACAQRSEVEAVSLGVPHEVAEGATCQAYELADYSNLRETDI
Method in brief: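 Competition binding used membrane preparations of transfected LM(tk−) cells and the α1 antagonist [3H]prazosin at 0.5 nM, incubated 20 min at 37° C in Tris-HCl buffer, pH 7.5.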

[3] = cloned human receptor in LM(tk-) cell membranes, SEM and n in lines below, read-out: pKi alpha-1 1c (converted)
[4] = rat cardiac muscle membranes, SEM and n in lines below, read-out: pKi Ca (converted)
[5] = cloned human receptor in LM(tk-) cell membranes, SEM and n in lines below, read-out: pKi alpha-1 1a (converted)
[6] = cloned human receptor in LM(tk-) cell membranes, SEM and n in lines below
[7] = cloned human α1C receptor, LM(tk−) cell membranes
[8] = rat cardiac muscle membrane fragments, L-type calcium channel
[9] = cloned human α1A receptor, LM(tk−) cell membranes
[10] = cloned human α1C receptor, LM(tk−) cell membranes, read-out: pKi alpha-1 1c (converted)
[11] = rat cardiac muscle membrane fragments, L-type calcium channel, read-out: pKi Ca (converted)
[12] = cloned human α1A receptor, LM(tk−) cell membranes, read-out: pKi alpha-1 1a (converted)
[13] = cloned human receptor, LM(tk-) cell membranes, mean, read-out: PKi alpha-1 1c (converted)
[14] = rat cardiac muscle membranes, mean, read-out: PKi Ca (converted)
[15] = cloned human receptor, LM(tk-) cell membranes, mean, read-out: PKi alpha-1 1a (converted)
[16] = cloned human receptor, LM(tk-) cell membranes, mean

Row | Ki [1, 3] [µM] | melting point [°C] | Ki (L-type calcium channel; [4]) [µM] | Ki [2, 5] [µM] | Structure (SMILES) | pKi alpha-1 1c [1, 7] | pKi alpha-1 1a [2, 9] | further results
1 | 0.000537 | 191 to 192 | 10 | 0.126 | COC(=O)C1=C(C)NC(C)=C(C(=O)NCCCN2CCC(c3ccccc3)CC2)C1c1ccc(Cl)c([N+](=O)[O-])c1 (stereo not drawn) [Example 17, 4-(4-Chloro-3-nitrophenyl)-1,4-dihydro-3-methoxycarbonyl-2,6-dimethyl-5-(N-(3-(4-phenylpiperidin-1-yl)propyl)carboxamido)pyridine] | – | – | –
2 | 0.00302 | 78 to 80 | 0.0955 | 0.155 | COC(=O)C1=C(C)NC(C)=C(C(=O)NCCCN2CCC(c3ccccc3)CC2)C1c1cccc([N+](=O)[O-])c1 (stereo not drawn) [Example 30, 1,4-Dihydro-3-methoxycarbonyl-2,6-dimethyl-4-(3-nitrophenyl)-5-(N-(3-(4-phenylpiperidin-1-yl)propyl)carboxamido)pyridine] | – | – | –
3 | 0.00275 | 100 to 105 | 158 | 0.2 | CC1=C(C(N)=O)C(c2ccc([N+](=O)[O-])cc2)C(C(=O)NCCCN2CCC(c3ccccc3)CC2)=C(C)N1 (stereo not drawn) [Example 60, 5-Carboxamido-1,4-dihydro-2,6-dimethyl-4-(4-nitrophenyl)-3-{N-[3-(4-phenylpiperidin-1-yl)propyl]}carboxamidopyridine] | – | – | –
4 | 0.00263 | 92 to 96 | 19.5 | 0.339 | CC1=C(C(N)=O)C(c2cccc([N+](=O)[O-])c2)C(C(=O)NCCCN2CCC(c3ccccc3)CC2)=C(C)N1 (stereo not drawn) [Example 62] | – | – | –
5 | 0.0389 | 202 to 205 | 66.1 | 0.0447 | CC1=C(C(=O)NCCCN2CCC(c3ccccc3)CC2)C(c2ccc([N+](=O)[O-])cc2)c2c([nH]c(=O)[nH]c2=O)N1 (stereo not drawn) [Example 63, 1,4-Dihydro-6-methyl-4-(4-nitrophenyl)-5-{N-[3-(4-phenylpiperidin-1-yl)propyl]}carboxamido-[2,3, d]uracilylpyridine] | – | – | –
6 | – | – | – | – | CCC1=C(C(N)=O)C(c2ccc([N+](=O)[O-])cc2)C(C(=O)NCCCN2CCC(O)(c3ccccc3)CC2)=CN1CC.Cl.O (stereo not drawn) [Example 101, 5-Carboxamido-1,6-diethyl-1,4-dihydro-3-{N-[3-(4-hydroxy-4-phenylpiperidin-1-yl)propyl]}carboxamido-4-(4-nitrophenyl)pyridine hydrochloride hydrate] | 8.54 | 5.86 | pKi Ca (L-type calcium channel; [8]): 3
7 | – | – | – | – | CCC1=C(C(N)=O)C(c2ccc([N+](=O)[O-])cc2)C(C(=O)NCCCN2CCN(c3ccccc3)CC2)=C(CC)N1 (stereo not drawn) [Example 104, 5-Carboxamido-2,6-diethyl-1,4-dihydro-4-(4-nitrophenyl)-3-{N-[3-(4-phenylpiperazin-1-yl)propyl]}carboxamido-pyridine hydrochloride hydrate] | – | – | Ki [1, 10]: 0.00324 µM; Ki (L-type calcium channel; [11]): 1000 µM; Ki [2, 12]: 0.132 µM
8 | – | – | – | – | CCC1=C(C(N)=O)C(c2ccc([N+](=O)[O-])cc2)C(C(=O)NCCCN2CCC(c3ccccc3)(c3ccccc3)CC2)=C(CC)N1 (stereo not drawn) [Example 120, 5-Carboxamido-2,6-diethyl-1,4-dihydro-4-(4-nitrophenyl)-3-{N-[3-(4,4-diphenylpiperidin-1-yl)propyl]} carboxamidopyridine] | 8.97 | 6.33 | Ki (L-type calcium channel; [11]): 1000 µM
9 | – | – | – | – | CCC1=C(C(N)=O)C(c2ccc([N+](=O)[O-])cc2)C(C(=O)NC2CCN(CCc3c[nH]c4ccccc34)CC2)=CN1CC (stereo not drawn) [Example 122, 5-Carboxamido-1,4-dihydro-3-(N-{1-[2-(3-indolyl)ethyl]piperidin-4-yl}) carboxamido-1,6-diethyl-4-(4-nitrophenyl)pyridine] | 7.71 | 6.62 | pKi Ca (L-type calcium channel; [8]): 3
10 | – | – | – | – | CCC1=C(C(N)=O)C(c2ccc([N+](=O)[O-])cc2)C(C(=O)NC2CCN(CCc3c[nH]c4ccccc34)CC2)=CN1CC (stereo not drawn) [Example 123, 5-Carboxamido-1,6-diethyl-1,4-dihydro-3-(N-{1-[2-(3-indolyl)ethyl]piperidin-4-yl}) carboxamide-4-(4-nitrophenyl)pyridine] | 8.3 | 6.7 | pKi Ca (L-type calcium channel; [8]): 4.53
11 | – | – | – | – | COc1ccccc1N1CCN(CCCNC(=O)C2=C(C)NC(C)=C(C(N)=O)C2c2ccc([N+](=O)[O-])cc2)CC1 (stereo not drawn) [Example 124] | – | – | Ki [1, 10]: 0.00195 µM; Ki (L-type calcium channel; [11]): 1000 µM; Ki [2, 12]: 0.0575 µM
12 | – | – | – | – | CCC1=C(C(=O)NC)C(c2ccc([N+](=O)[O-])cc2)C(C(=O)NCCCN2CCC(C#N)(c3ccccc3)CC2)=C(CC)N1 (stereo not drawn) [Example 126, 3-{N-[3-(4-Cyano-4-phenylpiperidin-1-yl)propyl]}carboxamido-1,4-dihydro-2,6-diethyl-5-(1-methyl)carboxamido-4-(4-nitrophenyl)pyridine] | 7.95 | 5.15 | pKi Ca (L-type calcium channel; [8]): 6.34
13 | – | – | – | – | COC(=O)C1(c2ccccc2)CCN(CCCNC(=O)C2=C(COCCN=[N+]=[N-])NC(C)=C(C(N)=O)C2c2ccc([N+](=O)[O-])cc2)CC1 (stereo not drawn) [Example 183, 2-[(2-Azidoethoxy)methyl]-5-carboxamido-1,4-dihydro-3-{N-[3-(4-methoxycarbonyl-4-phenylpiperidin-1-yl)propyl]}carboxamido-6-methyl-4-(4-nitrophenyl)pyridine] | – | – | Ki [1, 13]: 0.000851 µM; Ki (L-type calcium channel; [14]): 74.1 µM; Ki [2, 15]: 0.501 µM
14 | – | – | – | – | CC1=C(C(N)=O)C(c2ccc([N+](=O)[O-])cc2)C(C(=O)NCCCN2CCC(C(=O)OCCC#N)(c3ccccc3)CC2)=CN1C (stereo not drawn) [Example 209, 5-Carboxamido-3-{N-[3-(4-(2-cyanoethoxycarbonyl)-4-phenylpiperidin-1-yl)propyl]}carboxamido-1,4-dihydro-1,6-dimethyl-4-(4-nitrophenyl) pyridine] | – | – | PKi alpha-1 1c [1, 16]: 8.41; PKi Ca (L-type calcium channel; rat cardiac muscle membranes, mean): 4.53; PKi alpha-1 1a [2, 16]: 5.17
15 | – | – | – | – | CCC1=C(C(N)=O)C(c2ccc([N+](=O)[O-])cc2)C(C(=O)NCCCN2CCC(C(=O)OC)(c3ccccc3)CC2)=C(COCCN)N1 (stereo not drawn) [Example 234, 2-((2-Aminoethyl)oxy)methyl-5-carboxamido-6-ethyl-1,4-dihydro-3-(N-(3-(4-methoxycarbonyl-4-phenylpiperidin-1-yl)propyl)) carboxamido-4-(4-nitro)phenylpyridine] | – | – | Ki [1, 13]: 0.00162 µM; Ki (L-type calcium channel; [14]): 398 µM; Ki [2, 15]: 2.75 µM

Row | Structure (SMILES) | Ki [1, 3] [µM] | melting point [°C] | Ki (L-type calcium channel; [4]) [µM] | Ki [2, 5] [µM] | pKi alpha-1 1c [1, 7] | pKi alpha-1 1a [2, 9] | further results
16 | CC1=C(C(=O)NCCCN2CCC(c3ccccc3)(c3ccccc3)CC2)C(c2ccc([N+](=O)[O-])cc2)C(C(=O)N(C)C)=C(C)N1 (stereo not drawn) [Example 39, 1,4-Dihydro-2,6-dimethyl-3-(N,N-dimethyl) carboxamido-4-(4-nitrophenyl)-5-{N-[3-(4,4-diphenylpiperidin-1-yl)propyl]}carboxamidopyridine] | – | 135 | 44.7 | – | – | – | pKi alpha-1 1c [1, 6]: 7.23; pKi alpha-1 1a [2, 6]: 5.77
